Data published in patent publication US6407141B1 (priority 1995, dated 2002).

Assays:
[1] = tested on: leukemia with tumors in lymph nodes; assay: case study, leukemia with tumors in lymph nodes; format: in vivo, human; conditions: after 5-7 days; about 1 to 1 ½ g/day in dilute solution, almost no blockers
Description: An adult was terminally ill with leukemia with tumors in their lymph nodes and they had stopped chemotherapy treatment. […] It was hard for them to swallow so they were on a liquid diet because of the swelling of the lymph nodes in and around their mouth and throat.

[2] = tested on: tarter or plaque, gums and mouth tissue; assay: daily use of dental hygiene composition by the inventor; format: in vivo, human; conditions: 150 mg diluted in 300 ml of distilled water
Description: The inventor continued to search for other uses of the “miracle bullet” oxalic acid or oxalate compositions for treating the body and immune system. […] There was no more occasional bleeding of the gums during daily brushing, and the surface of the tongue appeared to be more smooth with an even coloring across the surface.

[3] = tested on: gingivitis, tarter and plaque; assay: daily brushing of dog's teeth with oxalic acid solution; format: in vivo; conditions: 150 mg in 300 ml of distilled water, one week
Description: At the completion of the exam, rather than treat the gingivitis with an injection of antibacterial medication followed by oral medication, it was agreed the inventor would commence daily brushing of the dog's teeth. […] The inventor began a daily brushing of the dog's teeth paying particular attention to the upper gums. The brushing was done first thing in the morning before the dog had anything to eat or drink. After the fourth day of brushing, the inventor/owner of the dog, noticed the redness of the gingivitis was disappearing and after one week returned the dog to the veterinarian for a follow-up exam. […] The veterinarian recommended cleaning one side of the dogs upper teeth and continuing with the daily brushing routine.

[4] = tested on: infected torn toenail; assay: soaking of poodle's infected paw in oxalic acid solution; format: in vivo, dog; conditions: 150 mg in 300 ml of distilled water, after two soakings; antibiotic also given
Description: On another occasion, the inventor's pet poodle had torn a toenail which became infected. The infection was in an advanced stage which was extremely sensitive and the poodle would not use the leg while walking. The poodle was examined by the veterinarian, received an injection of a antibiotic, and oral capsules were to be given.

[5] = tested on: cold, flu virus, sore throat; assay: mouth rinse and gargle case studies, cold, flu, sore throat; format: in vivo, human; conditions: rinse two minutes and gargle three times a day for four days; two cases
Description: On another occasion while visiting the veterinary clinic, the inventor noticed the receptionist had symptoms of a cold, and upon questioning the receptionist learned […] was treating a cold which was into the start of the second week. […] The inventor advised the receptionist that, each morning immediately upon rising, and prior to any other substance being put into the mouth, they should take approximately one teaspoon of the solution in their mouth, holding it for a minimum of two minutes, swishing the solution gently around the mouth, then discarding the solution and rinsing the mouth with warm water two or three times. The procedure began Friday night and the following Monday morning the cold was gone.
The dilute solution was the bench mark solution.
On still another occasion a pharmacist, consultant to the inventor, awoke at 2:30 a.m. with a very sore throat, unable to swallow without severe pain, remembered the inventor's description of their own experience, mixed two teaspoons of the bench mark mixture and two teaspoons of warm water, held the mixture in the mouth for two minutes and gargled well. After a 15-minute wait, repeated the procedure and then retired. Upon arising at 6:30 a.m., repeated the procedure one time before leaving for the pharmacy.

[6] = tested on: viral pneumonia; assay: mouthwash procedure in viral pneumonia; format: in vivo, human; conditions: 150 mg in 300 ml of distilled water, rinse and gargle three times daily, Friday to Sunday; antibiotics also given
Experimental: Also, their spouse was diagnosed with viral pneumonia by X-ray examination. They were given antibiotics to ward off infections because of a weakened immune system. […] They started the recommended procedure of approximately 2 teaspoons of wash, holding in mouth for 2 minutes then gargle, spit out wash, then rinsing mouth at least twice with warm tap water. The procedure was repeated first thing in the morning immediately after rising and before anything else was put in mouth. It was done mid-day with nothing in mouth one hour prior to wash. At night, the procedure was repeated as the last item before retiring.

[7] = man; cited from earlier work
[8] = FIG. 1; cited from earlier work
[9] = canine urine oxalate count; conditions: about 1 gram per day intake; 25 Kilogram canine
[10] = tested on: low red blood cell count; assay: vitamin B6 pills in woman with low red blood cell count; format: in vivo, human; conditions: 50 mg pills, one a day first week then every other day; three weeks
Description: After retirement, Turk's owner was planning to move and some friends stopped by to visit. One evening while having cocktails with the friends, they began talking about health and age, etc. […] Turk's owner's research had paid off. They gave their organic gardening magazine to the person and urged them to read the article by Judith Benn Hurley. They explained to them that the reason their red cell count was low was because of their diet. […] Their diet contained items high in oxalic acid, like spinach, their favorite salad.

[11] = tested on: fever, burning and irritation when urinating, back pain; assay: vitamin B6 pills for fever, urinary irritation, back pain attributed to oxalic acid; format: in vivo, human
Experimental: Then Turk's owner moved to Arkansas. His […], who is married and living nearby, worked at a local hospital. One day they began running a high fever in the range of 104° -106°, went home, and went straight to bed. The fever fell, and the next couple of days they returned to work only to have the fever return after a couple of hours. They went home and the cycle repeated. They mentioned this to a doctor in the emergency room and a series of tests were ordered looking for a virus, an infection, even a tubular conception. Turk's owner became involved, because after listening to long, sometimes whispered conversations between their spouse and stepdaughter, they asked what the trouble was. Their spouse explained what had happened and that the doctor was looking for some type of urinary tract or vaginal infection, but there were no positive cultures. […] Their stepdaughter was eating primarily salad bar meals loaded with oxalic acid.

[12] = tested on: melanoma (mouth tumor); assay: case study, Irish Setter with melanoma, oxalic acid diet and food additive; format: in vivo, canine; conditions: eleven month period; diet, then oxalic acid dihydrate 1 gram down to 20 mg per day in food
[13] = case study, dog at a pound given oxalic acid dihydrate gel cap for seven days; format: in vivo; conditions: one gram in a gel cap one hour prior to meal time for seven days
[14] = tested on: bone cancer (sarcoma) of the left hind leg; assay: case study, Doberman pincher with bone cancer, oxalic acid enhanced dogfood; format: in vivo, dog
Description: In accordance with another case study, a Doberman […] diagnosed with bone cancer (sarcoma) of the left hind leg. The dog had previously been put on medication for arthritis because it would not use or lower its left hind leg. […] A few days later, the dog began taking steps on the left hind leg with a slight limp.

[15] = after dose reduced to about 1 gram, then about 500 mg per day

O=C(O)C(=O)O [oxalic acid, ethanedioic acid]
tumors in lymph nodes [1]: shrinkage of tumors in the lymph nodes | condition of gums and mouth tissue [2]: remarkable improvement | tarter or plaque in the mouth [2]: removal of and prevention of any build up of tarter or plaque | gingivitis at follow-up exam [3]: no more evidence of gingivitis | tarter and plaque at follow-up exam [3]: no tarter but moderate plaque remained | infection of the paw [4]: improved dramatically | soreness of throat and nose, flu virus [5]: completely removes all soreness of throat and nose | effects of the viral pneumonia [6]: nearly complete relief | death after ingestion, as early as [7]: 3 min | death after ingestion, as late as [7]: 14 days | stability of solutions to radiation [8]: decomposed by radiation | level of oxalate in the urine [9]: ~22 µg/mL

Cc1ncc(CO)c(CO)c1O.Cl [vitamin B6, pyridoxine hydrochloride]
outcome, surgery delayed by low red cell count [10]: doctor had just scheduled their operation | symptoms ([11]; after the third day): all symptoms were gone | back pain without muscle or spine problems ([11]; other people): found relief | fever ([11]; two pills, one after twelve hours, then one a day, in two days): fever was gone

O=C(O)C(=O)O [oxalic acid dihydrate]
mouth tumor size [12]: reduced in size | adverse effects [13]: no adverse effects | pain and walking ([14]; after about 30 days on the oxalic acid diet): no pain during physical exam and was walking normally | X-ray, area affected by the sarcoma [14, 15]: decrease or reduction in the size of the area affected by the sarcoma | X-ray, bone material [14, 15]: increase in bone material in the area of the sarcoma | use of left hind leg ([14]; within 4 days, about 2 grams added to dry dogfood): lowered its left hind leg and used it frequently
